{"source": "paper PMC6980506", "about": "“Comparative pharmacokinetics and pharmacodynamics of the advanced Retinol-Binding Protein 4 antagonist in dog and cynomolgus monkey” (PLoS ONE, 2020)", "assay": "Single dose pharmacokinetic study in beagle dog", "format": "in vivo", "conditions": "male, beagle, plasma; for concentration at 8 h / concentration at 12 h / concentration at 24 h / concentration at 36 h / concentration at 48 h / concentration at 0.25 h / concentration at 0.5 h / concentration at 1 h / concentration at 2 h / concentration at 4 h / concentration at 10 h: male beagle dog; for half-life: read-out: T1/2, apparent terminal half-life (converted)", "experimental": "Pharmacokinetic studies were conducted in male beagle dogs and male cynomolgus monkeys at SRI International, Menlo Park, CA. General procedures for animal care and housing were in accordance with the National Research Council (NRC) Guide for the Care and Use of Laboratory Animals (1996) and the Animal Welfare Standards incorporated in 9 CFR Part 3, 1991 and complied with guidelines set forth by the ARVO Animal Statement for the Use of Animals in Ophthalmic and Vision Research. During the course of the PK experiments, cynomolgus monkeys were individually housed in stainless steel primary enclosures in an AAALAC-accredited facility. Animals were fed a commercial monkey chow, and supplemental food was provided (fresh fruits, vegetables, seeds, and nuts). Reverse osmosis-purified drinking water was available at all times. Cynomolgus monkeys were maintained on a 12:12 hour light:dark cycle at the 64–84°F temperature and 30–70% humidity. Monkeys had access to enrichment opportunities (grooming devices, foraging devices, activity panels and mirrors) and were provided auditory stimuli and human interaction enrichment throughout the study. Blood samples were collected by venipuncture of a peripheral vein. Animals were acclimated to the squeeze back mechanism in their home cage by repeated, short periods of restraint during general husbandry procedures for at least 2 weeks prior to dosing. Animal were not removed from their cages for collection, and no anesthesia/analgesic agents were used for blood collection. […] For PK experiments, beagle dogs were individually housed in enclosed run (≥ 4 ft x 6 ft). Dogs were exposed to their daily ration of food, Harlan Teklad 2025C Certified Global 25% Protein Dog Diet. Water was provided from the public water supply (municipal tap water) ad libitum. Dogs were maintained on a 12:12 hour light:dark cycle at the 72–73°F temperature and 40–71% humidity. Every effort was made to minimize, if not eliminate, pain and suffering in all animals in this study. No restraining devices were used in blood collecting procedures. Dogs were gentle hand-held to restrain by trained technicians with the dogs foreleg extended for sample collection of blood from cephalic vein. Animals were awake during blood sample collection with no anesthesia/analgesic agents used, and positive reinforcement by the technician was provided following collection. […] All dogs were released back to the colony after the study was completed. Male beagle dogs and male cynomolgus monkey received a single i.v. dose of a test compound at 0.5 mg kg^−1 (dog) and 1 mg kg^−1 (monkey) or a single p.o. dose of a test compound of at 2 mg kg^−1 (dog) and 5 mg kg^−1 (monkey). The number of animals that was used in PK experiments is 3 per study group. Intravenous administration vehicle was 3% DMA/45% PEG300/12% ethanol/40% sterile water; p.o. vehicle was 2% Tween 80 in 0.9% saline. […] Blood samples were processed to plasma. Following protein extraction with acetonitrile, compound concentrations in plasma were measured by LC-MS/MS. The plasma drug level data were analyzed using WinNonlin software package; Model 201 (for i.v. bolus administration);was used for the analysis of i.v. data, and Model 200 (for extravascular administration) was used for the analysis of the p.o. data. Aliquots of pre-dose plasma samples, as well as aliquots of plasma PK samples, were used for the analysis of the plasmabiomarker, RBP4.", "key": {"[1]": {"conditions": "dog, iv, 0.5 mg/kg, iv 0.5 mg/kg, read-out: Plasma level, Mean"}, "[2]": {"conditions": "dog, iv, 0.5 mg/kg, iv 0.5 mg/kg, read-out: Plasma level, Individual animals"}, "[3]": {"conditions": "dog, po, 2 mg/kg, po 2 mg/kg, read-out: Plasma level, Individual animals"}, "[4]": {"conditions": "dog, po, 2 mg/kg, po 2 mg/kg, read-out: Plasma level, Mean"}, "[5]": {"conditions": "iv, Dog, 0.5 mg kg^−1 i.v., mean ± SD, n=3"}, "[6]": {"conditions": "po, Dog, 2.0 mg kg^−1 p.o., mean ± SD, n=3"}}, "note": "Like-named read-outs stand apart in the source and are kept apart here.", "data": [{"smiles": "Cc1cc(C(=O)O)nc(N2C[C@H]3C[C@@H](c4ccccc4C(F)(F)F)C[C@H]3C2)n1", "note": "[BPN-14136]", "values": [{"measurement": "concentration at 8 h", "setting": "[1]", "result": 0.209, "unit": "µg/mL"}, {"measurement": "concentration at 12 h", "setting": "[1]", "result": 0.107, "unit": "µg/mL"}, {"measurement": "concentration at 24 h", "setting": "[2]", "result": 0.169, "unit": "µg/mL"}, {"measurement": "concentration at 24 h", "setting": "[1]", "result": 0.175, "unit": "µg/mL"}, {"measurement": "concentration at 36 h", "setting": "[2]", "result": 0.0333, "unit": "µg/mL"}, {"measurement": "concentration at 36 h", "setting": "[1]", "result": 0.041, "unit": "µg/mL"}, {"measurement": "concentration at 48 h", "setting": "[2]", "result": 0.0928, "unit": "µg/mL"}, {"measurement": "concentration at 48 h", "setting": "[1]", "result": 0.0959, "unit": "µg/mL"}, {"measurement": "bioavailability", "setting": "dog, oral, 2 mg kg^−1, Dog, 2.0 mg kg^−1 p.o. vs 0.5 mg kg^−1 i.v., read-out: %F, bioavailability", "result": "~84", "unit": "%"}, {"measurement": "concentration at 0.25 h", "setting": "[3]", "result": 7.1, "unit": "µg/mL"}, {"measurement": "concentration at 0.25 h", "setting": "[4]", "result": 7.09, "unit": "µg/mL"}, {"measurement": "concentration at 0.5 h", "setting": "[3]", "result": 6.34, "unit": "µg/mL"}, {"measurement": "concentration at 0.5 h", "setting": "[4]", "result": 6.72, "unit": "µg/mL"}, {"measurement": "concentration at 1 h", "setting": "[3]", "result": 6.63, "unit": "µg/mL"}, {"measurement": "concentration at 1 h", "setting": "[4]", "result": 5.94, "unit": "µg/mL"}, {"measurement": "concentration at 2 h", "setting": "[3]", "result": 3.6, "unit": "µg/mL"}, {"measurement": "concentration at 2 h", "setting": "[4]", "result": 4.12, "unit": "µg/mL"}, {"measurement": "concentration at 4 h", "setting": "[3]", "result": 1.79, "unit": "µg/mL"}, {"measurement": "concentration at 4 h", "setting": "[4]", "result": 2.14, "unit": "µg/mL"}, {"measurement": "concentration at 8 h", "setting": "[3]", "result": 0.855, "unit": "µg/mL"}, {"measurement": "concentration at 8 h", "setting": "[4]", "result": 0.904, "unit": "µg/mL"}, {"measurement": "concentration at 10 h", "setting": "[3]", "result": 0.407, "unit": "µg/mL"}, {"measurement": "concentration at 10 h", "setting": "[4]", "result": 0.559, "unit": "µg/mL"}, {"measurement": "concentration at 12 h", "setting": "[3]", "result": 0.453, "unit": "µg/mL"}, {"measurement": "concentration at 12 h", "setting": "[4]", "result": 0.532, "unit": "µg/mL"}, {"measurement": "concentration at 24 h", "setting": "[3]", "result": 0.33, "unit": "µg/mL"}, {"measurement": "concentration at 24 h", "setting": "[4]", "result": 0.383, "unit": "µg/mL"}, {"measurement": "concentration at 36 h", "setting": "[3]", "result": 0.0824, "unit": "µg/mL"}, {"measurement": "concentration at 36 h", "setting": "[4]", "result": 0.0942, "unit": "µg/mL"}, {"measurement": "concentration at 48 h", "setting": "[4]", "result": 0.126, "unit": "µg/mL"}, {"measurement": "AUC(0-inf)", "setting": "[5]", "result": "10.7 ± 0.5", "unit": "µg·h/mL"}, {"measurement": "AUC(0-t)", "setting": "[5]", "result": "10.3 ± 0.5", "unit": "µg·h/mL"}, {"measurement": "clearance", "setting": "iv, Dog, 0.5 mg kg^−1 i.v., mean ± SD, n=3, read-out: CL, total body clearance (converted)", "result": 0.047, "unit": "L/h/kg"}, {"measurement": "Cmax", "setting": "iv, Dog, 0.5 mg kg^−1 i.v., mean ± SD, n=3, read-out: Cmax, maximum observed concentration at first time point", "result": "2.7 ± 0.1", "unit": "µg/mL"}, {"measurement": "half-life", "setting": "[5]", "result": "2.6 ± 0.2", "unit": "h"}, {"measurement": "Vd", "setting": "iv, Dog, 0.5 mg kg^−1 i.v., mean ± SD, n=3, read-out: Vss, volume of distribution at steady state", "result": "0.622 ± 0.0034", "unit": "L/kg"}, {"measurement": "AUC(0-inf)", "setting": "[6]", "result": "35.9 ± 4.4", "unit": "µg·h/mL"}, {"measurement": "AUC(0-t)", "setting": "[6]", "result": "35.4 ± 0.4", "unit": "µg·h/mL"}, {"measurement": "Tmax", "setting": "[6]", "result": "0.33 ± 0.14", "unit": "h"}, {"measurement": "Cmax", "setting": "po, Dog, 2.0 mg kg^−1 p.o., mean ± SD, n=3, read-out: Cmax", "result": "7.5 ± 0.2", "unit": "µg/mL"}, {"measurement": "half-life", "setting": "[6]", "result": "2.9 ± 0.4", "unit": "h"}]}]}
